“And” between values parts separate entries of the source, which are not always exact repeats. Equal entries are not always repeated.
Legend:
[1] = Primary HCV replicon cell assay, cytotoxicity (neutral red dye uptake); type: cell-based; settings: human, AVA5 HCV replicon cells (sub-genomic CON1, genotype 1b), 3 days of treatment
Protocol: (§3) Antiviral activity of test compounds was assessed in a 3-day assay using the stably-expressing HCV replicon cell line, AVA5 (sub-genomic CONI, genotype 1b) [Korba, B. E. et al. Antiviral Res. 77, 56-63 (2008); Blight et al., Science 290, 1972-1974 (2000)] maintained as sub-confluent cultures on 96-well plates as previously described [Okuse et al., Antiviral Research 65, 23-34 (2005)]. Antiviral activity was determined by blot hybridization analysis of intracellular HCV RNA (normalized to the level of cellular B-actin RNA in each culture sample) and cytotoxicity was assessed by neutral red dye uptake after 3 days of treatment. Additional studies were performed using Huh7 cells containing another HCV replicon, H/FL-Neo, a genotype la full length construct [Blight et al., J. Virol. […] For studies involving human serum, standard culture medium (which contains 10% fetal bovine serum) and assay conditions were maintained.

[2] = system: HCV replicon cell line, AVA5 (sub-genomic CONI, genotype 1b); assay: Primary HCV replicon cell assay, antiviral activity (intracellular HCV RNA, blot hybridization); type: cell-based; settings: Hepatitis C virus, Ava5, 72 h, 3-day assay; for EC50: 2-fold depression of intracellular HCV RNA; for EC90: 10-fold depression of intracellular HCV RNA
Protocol: (§1) Antiviral activity of test compounds was assessed in a 3-day assay using the stably-expressing HCV replicon cell line, AVA5 (sub-genomic CONI, genotype 1b) [Korba, B. E. et al. Antiviral Res. 77, 56-63 (2008); Blight et al., Science 290, 1972-1974 (2000)] maintained as sub-confluent cultures on 96-well plates as previously described [Okuse et al., Antiviral Research 65, 23-34 (2005)]. Antiviral activity was determined by blot hybridization analysis of intracellular HCV RNA (normalized to the level of cellular B-actin RNA in each culture sample) and cytotoxicity was assessed by neutral red dye uptake after 3 days of treatment. Additional studies were performed using Huh7 cells containing another HCV replicon, H/FL-Neo, a genotype la full length construct [Blight et al., J. Virol. 77, 3181-3190 (2003)]. For studies involving human serum, standard culture medium (which contains 10% fetal bovine serum) and assay conditions were maintained.
(§2) EC50, EC90 and CC50 values (±standard deviations [S.D.]) were calculated by linear regression analysis using data combined from all treated cultures (Korba, B. E. et al. Antiviral Res. 77, 56-63 (2008)). […] Selectivity index (S.I.) was calculated as CC50/EC90 for HBV assays and CC50/EC50 for HCV assays.

[3] = Secondary HCV replicon cell assay genotype 1b, cytotoxicity (neutral red dye uptake); type: cell-based; settings: human, AVA5 HCV replicon cells (sub-genomic CON1)
Protocol: as §3

[4] = system: HCV replicon H/FL-Neo, genotype 1a full length construct, in Huh7 cells; assay: Secondary HCV replicon cell assay genotype 1a, antiviral activity; type: cell-based; settings: Hepatitis C virus; for EC50: Huh-7, 2-fold depression of intracellular HCV RNA; for EC90: Huh-7, 10-fold depression of intracellular HCV RNA
Protocol: as §1, §2

[5] = system: HCV replicon cell line, AVA5 (sub-genomic CONI, genotype 1b); assay: Secondary HCV replicon cell assay genotype 1b, antiviral activity; type: cell-based; settings: Hepatitis C virus; for EC50: 2-fold depression of intracellular HCV RNA; for EC90: 10-fold depression of intracellular HCV RNA
Protocol: as §1, §2

[6] = Secondary HCV replicon cell assay genotype 1a, cytotoxicity (neutral red dye uptake); type: cell-based; settings: human
Protocol: as §3

[7] = system: HBV virion in 2.2.15 cells; assay: HBV antiviral assay in 2.2.15 cells, virion (VIR) HBV DNA; type: cell-based; settings: Hepatitis B virus, HBV virion DNA, 2.2.15 cells, nine daily doses; for EC50: read-out: EC50 (VIR); for EC90: read-out: EC90 (VIR)
Protocol: (§4) HBV antiviral assays were conducted as previously described [Korba, B. E. et al. Antiviral Res. 77, 56-63 (2008);].

[8] = Cytotoxicity in 2.2.15 cells (neutral red dye uptake); type: cell-based; settings: human, nine daily doses
Protocol: Briefly, confluent cultures of 2.2.15 cells were maintained on 96-well flat-bottomed tissue culture plates (confluence in this culture system is required for active, high levels of HBV replication equivalent to that observed in chronically-infected individuals. Cultures were treated with nine consecutive daily doses of the test compounds. HBV DNA levels were assessed by quantitative blot hybridization 24 hr. after the last treatment. Cytotoxicity was assessed by uptake of neutral red dye 24 hr. following the last treatment.

[9] = system: HBV replication intermediates in 2.2.15 cells; assay: HBV antiviral assay in 2.2.15 cells, replication intermediates (RI) HBV DNA; type: cell-based; settings: Hepatitis B virus, HBV replication intermediates, 2.2.15 cells, nine daily doses; for EC50: read-out: EC50 (RI); for EC90: read-out: EC90 (RI)
Protocol: as §4

| melting point | Structure (SMILES) | CC50 at 3 days [1] | EC50 [2] | EC90 [2] | further results |
| --- | --- | --- | --- | --- | --- |
| 144.8 to 145.8 °C | Cc1cccc(C(=O)Nc2ccc(F)cc2)c1O | – | – | – | – |
| 167.3 °C | O=C(O)c1ccccc1C(=O)Nc1ccc(F)cc1 | – | – | – | – |
| 183.5 °C | O=C(Nc1cccc(Br)c1)c1ccccc1O | – | – | – | – |
| 217.5 °C | Cc1cccc(C(=O)Nc2cccc([N+](=O)[O-])c2)c1O | – | – | – | – |
| 99.8 to 100.4 °C | Cc1cccc(C(=O)Nc2ccccc2Cl)c1O | – | – | – | – |
| 147.2 to 148.2 °C | Cc1cccc(C(=O)Nc2cccc(Br)c2)c1O | – | – | – | – |
| 74.2 to 83.4 °C | Cc1cccc(C(=O)Nc2ccccc2F)c1O | – | – | – | – |
| 115 to 117 °C | CC(=O)Oc1ccccc1C(=O)Nc1ccccc1S(C)(=O)=O | – | – | – | – |
| 142 to 145 °C | CS(=O)(=O)c1ccccc1NC(=O)c1ccccc1O | – | – | – | – |
| 51 to 53 °C | CC(=O)Oc1ccccc1C(=O)Nc1cccc(S(C)(=O)=O)c1 | – | – | – | – |
| 210 to 212 °C | CS(=O)(=O)c1cccc(NC(=O)c2ccccc2O)c1 | – | – | – | – |
| 184 to 186 °C | CC(=O)Oc1ccccc1C(=O)Nc1ccc(S(C)(=O)=O)cc1 | – | – | – | – |
| 193 °C and 193 to 196 °C | CS(=O)(=O)c1ccc(NC(=O)c2ccccc2O)cc1 | – | – | – | – |
| 196 to 198 °C | O=C(Nc1cc(C(F)(F)F)cc(C(F)(F)F)c1)c1ccccc1O | – | – | – | – |
| 233 °C | O=C(Nc1ccc([N+](=O)[O-])cc1)c1ccccc1O | – | – | – | – |
| – | O=C(Nc1ccc([N+](=O)[O-])cc1Cl)c1cc(Cl)ccc1O [Compound 6, 5-chloro-N-(2-chloro-4-nitrophenyl)-2-hydroxybenzamide] | 11 µM | 0.31 µM | 1.2 µM | CC50 at 3 days [3]: 0.64 µM; EC50 [4]: 0.11 µM; EC90 [4]: 0.82 µM; EC50 [5]: 0.1 µM; EC90 [5]: 0.61 µM; CC50 at 3 days [6]: 0.79 µM |
| – | CC(=O)Oc1ccc(Cl)cc1C(=O)Nc1ccc([N+](=O)[O-])cc1Cl [Compound 25, 4-chloro-2-(2-chloro-4-nitrophenylcarbamoyl)phenyl acetate] | 5.8 µM | 0.13 µM | 0.82 µM | CC50 at 3 days [3]: 3.4 µM; EC50 [4]: 0.1 µM; EC90 [4]: 0.46 µM; EC50 [5]: 0.078 µM; EC90 [5]: 0.31 µM; CC50 at 3 days [6]: 4.3 µM |
| – | CC(=O)Oc1ccccc1C(=O)Nc1ccc(Cl)cc1 [Compound 38, 2-(4-chlorophenylcarbamoyl)phenyl acetate] | – | – | – | EC50 [7]: 3.5 µM; EC90 [7]: 9.7 µM; CC50 at 9 days [8]: > 100 µM |
| – | CC(=O)Oc1ccccc1C(=O)Nc1ccc(Br)cc1 [Compound 39, 2-(4-bromophenylcarbamoyl)phenyl acetate] | – | – | – | EC50 [7]: 0.76 µM; EC90 [7]: 3 µM; EC50 [9]: 2.1 µM; EC90 [9]: 6.8 µM; CC50 at 9 days [8]: > 100 µM |
| – | CC(=O)Oc1ccccc1C(=O)Nc1ccc(I)cc1 [Compound 40, 2-(4-iodophenylcarbamoyl)phenyl acetate] | – | – | – | EC50 [7]: 0.2 µM; EC90 [7]: 1.2 µM; EC50 [9]: 0.73 µM; EC90 [9]: 3.3 µM; CC50 at 9 days [8]: > 100 µM |
| – | Cc1cc([N+](=O)[O-])c(Cl)cc1NC(=O)c1ccccc1O [Compound 42, N-(5-chloro-2-methyl-4-nitrophenyl)-2-hydroxybenzamide] | – | – | – | EC50 [7]: 0.23 µM; EC90 [7]: 0.71 µM; EC50 [9]: 0.68 µM; EC90 [9]: 2.1 µM; CC50 at 9 days [8]: > 100 µM |
| – | O=C(Nc1ccc(OC(F)(F)C(F)F)cc1)c1ccccc1O [Compound 49, 2-hydroxy-N-(4-(1,1,2,2-tetrafluoroethoxy)phenyl)benzamide] | 3.9 µM | 0.313 µM | 1.1 µM | – |
| – | O=C(Nc1ccc(C(F)(F)F)cc1)c1ccccc1O [Compound 51, 2-hydroxy-N-(4-(trifluoromethyl)phenyl)benzamide] | – | – | – | EC50 [7]: 5.6 µM; EC90 [7]: 21 µM; CC50 at 9 days [8]: > 100 µM |
| – | CC(=O)Oc1ccccc1C(=O)Nc1cc(C(F)(F)F)ccc1Cl [Compound 52, 2-(2-chloro-5-(trifluoromethyl)phenylcarbamoyl)phenyl acetate] | – | – | – | EC50 [7]: 2.5 µM; EC90 [7]: 9.1 µM; CC50 at 9 days [8]: 59 µM |
| – | CC(=O)Oc1ccccc1C(=O)Nc1ccc(Cl)c([N+](=O)[O-])c1 [Compound 53, 2-(4-chloro-3-nitrophenylcarbamoyl)phenyl acetate] | – | – | – | EC50 [7]: 2 µM; EC90 [7]: 8.7 µM; CC50 at 9 days [8]: 52 µM |
| – | CC(=O)Oc1ccccc1C(=O)Nc1cc([N+](=O)[O-])ccc1Cl [Compound 54, 2-(2-chloro-5-nitrophenylcarbamoyl)phenyl acetate] | – | – | – | EC50 [7]: 2.1 µM; EC90 [7]: 8.5 µM; CC50 at 9 days [8]: 65 µM |
| – | CC(=O)Oc1ccccc1C(=O)Nc1ccc(F)c(F)c1 [Compound 55, 2-(3,4-difluorophenylcarbamoyl)phenyl acetate] | – | – | – | EC50 [7]: 2.2 µM; EC90 [7]: 8.8 µM; CC50 at 9 days [8]: 48 µM |

| Structure (SMILES) | melting point | CC50 at 3 days [1] | EC50 [2] | EC90 [2] | further results |
| --- | --- | --- | --- | --- | --- |
| O=C(Nc1ccccc1Br)c1ccccc1O [Compound 4, N-(2-bromophenyl)-2-hydroxybenzamide] | 165.5 °C | > 100 µM | 5.8 µM | 20 µM | – |
| O=C(Nc1cccc([N+](=O)[O-])c1)c1ccccc1O [Compound 7, 2-hydroxy-N-(3-nitrophenyl)benzamide] | 222 °C | 34 µM | 1.1 µM | 6.1 µM | – |
| Cc1cccc(C(=O)Nc2cccc(F)c2)c1O [Compound 9, N-(3-fluorophenyl)-2-hydroxy-3-methylbenzamide] | 143.8 to 144.8 °C | 40 µM | 1.9 µM | 9 µM | – |
| Cc1cccc(C(=O)Nc2cccc(Cl)c2)c1O [Compound 14, N-(3-chlorophenyl)-2-hydroxy-3-methylbenzamide] | 148.5 °C | 35 µM | 2.8 µM | 7.8 µM | – |
| O=C(O)c1ccccc1C(=O)Nc1ccccc1Cl [Compound 15, 2-(2-chlorophenylcarbamoyl)benzoic acid] | 145.2 to 145.7 °C | 78 µM | 2.9 µM | 11 µM | – |
| Cc1cccc(C(=O)Nc2ccc(Cl)cc2)c1O [Compound 20, N-(4-chlorophenyl)-2-hydroxy-3-methylbenzamide] | 159.6 to 161.6 °C | > 100 µM | 6.5 µM | 16 µM | – |
| O=C(Nc1ccccc1Cl)c1ccccc1O [Compound 23, N-(2-chlorophenyl)-2-hydroxybenzamide] | 168.1 to 168.8 °C | 72 µM | 3.8 µM | 21 µM | – |
| CC(=O)Oc1ccccc1C(=O)Nc1cccc(F)c1 [Compound 24, 2-(3-fluorophenylcarbamoyl)phenyl acetate] | 88.5 to 89.7 °C | > 100 µM | 2.1 µM | 6.8 µM | – |
| O=C(Nc1cccc(C(F)(F)F)c1)c1ccccc1O [Compound 27, 2-hydroxy-N-(3-(trifluoromethyl)phenyl)benzamide] | 188 to 190.6 °C | > 100 µM | 3.6 µM | 11 µM | – |
| CC(=O)Oc1ccccc1C(=O)Nc1cc(C(F)(F)F)cc(C(F)(F)F)c1 [Compound 34, 2-(3,5-bis(trifluoromethyl)phenylcarbamoyl)phenyl acetate] | 118 to 125 °C | 4.3 µM | 0.44 µM | 1.7 µM | CC50 at 3 days [3]: 9.5 µM; EC50 [4]: 0.79 µM; EC90 [4]: 4.7 µM; EC50 [5]: 0.91 µM; EC90 [5]: 3.7 µM; CC50 at 3 days [6]: 7.8 µM |

— patent US20120108592A1, “PHARMACEUTICAL COMPOSITIONS AND METHODS OF USE OF SALICYLANILIDES FOR TREATMENT OF HEPATITIS VIRUSES” (priority 2010, published 2012)
